Results: US7998978B2 (Pfizer Inc., priority 2006, dated 2011)
pKi: −log10 of the molar value.

Molecular target: T1, JNK1α1 (Homo sapiens, UniProt P45983)
T1 construct: catalytic domain containing amino acids 1-364 and N-terminal hexahistidine tag; hexahistidine (His6) (N); made in house; host or cells: E. coli BL21 (DE3)
Test: Coupled spectrophotometric (PK/LDH) JNK1α1 assay: % inhibition and Ki determination
Format: biochemical
Details: for pKi: JNK-1
Experimental: % Inhibition and Ki Determination
A coupled spectrophotometric assay, coupling JNK1α1 activity to the oxidation of β-NADH to NAD+ through the action of pyruvate kinase (PK) and lactic dehydrogenase (LDH), was used to determine the potency (percent inhibition at 1 or 10 μM or Ki) of compounds against JNK1α1 (Genbank Accession Number: L26318). […] The reaction was monitored by following the decrease in absorbance at 340 nm. The initial reaction rate was determined by the slope of the change in absorbance. To calculate percent inhibition the rate of the reaction in the presence of 1 or 10 μM compound was compared to the rate of the reaction with only DMSO multiplied by 100 percent. Note, the background rate of the above reaction in the presence of 10 μM PHA-00738186 was subtracted from all rates. […] Y=(−X+Eo−(Ki*(1+A/Km))+((X−Eo+(Ki*(1+A/Km)))^2+4*Eo*(Ki*(1+A/Km)))^0.5)*(Vm*A/(Km+A)/(2*Eo)) Formula: • Parameters: Eo, Ki, A, Km, Vo • Y is initial reaction velocity; • X is inhibitor concentration; • A is [ATP]; • Ki is inhibition constant; • Vm is Vmax; • Eo is total (initial) enzyme concentration; • Km is ATP Km;
The compounds were prepared in 100% DMSO at a 40× concentration. For percent inhibition experiments this would be 400 or 40 μM for 10 and 1 μM final concentration, respectively. For the Ki determination 3× serial dilutions were made starting at 4 mM (100 μM at 1×) in DMSO. A total of 11 concentrations were used for the analysis. The compounds were added to the reaction plate first. Next, a solution containing the HEPES, MgCl2, DTT, peptide substrate, NADH, PEP, PK/LDH enzyme, and JNK1α1—364nHis enzyme was added to the assay plate. The plate was incubated at room temperature for 15 minutes. Then the plate was warmed to 30° C. for 5 minutes. The reaction was initiated with the addition of ATP. The reaction was run in a plate reader at 30° C. for 20 minutes with absorbance readings made about every 10 seconds.
The column with “#” heading refers to compound number as exemplified in the Examples section. The column with “Ki” heading refers to Ki (in nM). The column with “% Inhibition” heading refers to percent inhibition of JNK-1 at 1 μM or 10 μM (in %) unless otherwise stated. ND refers to no data was taken.

T1 sequence (P45983 1-364): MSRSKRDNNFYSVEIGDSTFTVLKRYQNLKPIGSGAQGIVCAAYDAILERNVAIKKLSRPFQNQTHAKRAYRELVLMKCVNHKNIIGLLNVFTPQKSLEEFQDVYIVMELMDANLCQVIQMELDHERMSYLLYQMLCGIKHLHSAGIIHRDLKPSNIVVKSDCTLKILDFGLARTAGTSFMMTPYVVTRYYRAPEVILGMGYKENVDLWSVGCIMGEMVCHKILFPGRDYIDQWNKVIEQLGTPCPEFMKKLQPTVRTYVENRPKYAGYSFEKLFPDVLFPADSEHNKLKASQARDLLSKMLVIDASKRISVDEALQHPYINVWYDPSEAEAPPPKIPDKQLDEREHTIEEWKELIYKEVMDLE

Compound | pKi | also measured
COCCC(=O)Nc1cc2cc(-c3cn[nH]c3)ccc2cn1 [Example 27, 3-methoxy-N-[6-(1H-pyrazol-4-yl)isoquinolin-3-yl]propanamide] | 8.40 | 
O=C(NCCn1cccn1)c1cccc2cnc(N[C@H]3CC[C@H](O)CC3)nc12 [Example 507, 2-[(trans-4-hydroxycyclohexyl)amino]-N-[2-(1H-pyrazol-1-yl)ethyl]quinazoline-8-carboxamide] |  | inhibition at 1 µM (read-out: % Inhibition JNK-1): 25%
CCS(=O)(=O)N[C@H]1CC[C@H](Nc2ncc3cccc(OC4CCOC4)c3n2)CC1 (stereo partly drawn) [Example 188, N-(trans-4-{[8-(tetrahydrofuran-3-yloxy)quinazolin-2-yl]amino}cyclohexyl)ethanesulfonamide] | 6.43 | 
C[C@H](CO)NC(=O)c1ccc2cnc(N[C@H]3CC[C@H](O)CC3)nc2c1 [Example 363] | 5.71 | 
c1ccc(Cn2cccn2)c(CNc2cc3cc(-c4cn[nH]c4)ccc3cn2)c1 [Example 233, 6-(1H-pyrazol-4-yl)-N-[2-(1H-pyrazol-1-ylmethyl)benzyl]isoquinolin-3-amine] |  | inhibition at 10 µM (@10 uM, read-out: % Inhibition JNK-1): 46%
Cc1ccc2cnc(N[C@H]3CC[C@H](O)CC3)nc2c1OCC(=O)N(C)C [Example 207, 2-({2-[(trans-4-hydroxycyclohexyl)amino]-7-methylquinazolin-8-yl}oxy)-N,N-dimethylacetamide] | 5.97 | 
O=C(NCc1ccccc1)c1cccc2cnc(N[C@H]3CC[C@H](O)CC3)nc12 [Example 124, N-benzyl-2-[(trans-4-hydroxycyclohexyl)amino]quinazoline-8-carboxamide] | 6.39 | 
O=C(NCC1CCCO1)c1ccc2cnc(N[C@H]3CC[C@H](O)CC3)nc2c1 (stereo partly drawn) [Example 340, 2-[(trans-4-hydroxycyclohexyl)amino]-N-(tetrahydrofuran-2-ylmethyl)quinazoline-7-carboxamide] | 6.08 | 
O=C(NCc1ccccc1)c1ccc2cnc(N[C@H]3CC[C@H](O)CC3)nc2c1 [Example 62, N-benzyl-2-[(trans-4-hydroxycyclohexyl)amino]quinazoline-7-carboxamide] | 6.36 | 
O=C(Cn1cnnn1)Nc1cc2cc(-c3cn[nH]c3)ccc2cn1 [Example 48, N-[6-(1H-pyrazol-4-yl)isoquinolin-3-yl]-2-(1H-tetrazol-1-yl)acetamide] | 7.82 | 
CCn1cc(CNC(=O)c2cccc3cnc(N[C@H]4CC[C@H](O)CC4)nc23)cn1 [Example 489, N-[(1-ethyl-1H-pyrazol-4-yl)methyl]-2-[(trans-4-hydroxycyclohexyl)amino]quinazoline-8-carboxamide] |  | inhibition at 1 µM (read-out: % Inhibition JNK-1): 16%
O=C(Cc1ccccc1)Nc1cc2cc(-c3cn[nH]c3)ccc2cn1 [Example 6, 2-phenyl-N-[6-(1H-pyrazol-4-yl)isoquinolin-3-yl]acetamide] | 7.41 | 
O=C1NCCN1CCOc1cccc2cnc(N[C@H]3CC[C@H](O)CC3)nc12 [Example 260, 1-[2-({2-[(trans-4-hydroxycyclohexyl)amino]quinazolin-8-yl}oxy)ethyl]imidazolidin-2-one] |  | inhibition at 1 µM (read-out: % Inhibition JNK-1): 34%
CCOC(=O)N1CC[C@@H](NC(=O)c2ccc3cnc(N[C@H]4CC[C@H](O)CC4)nc3c2)C1 [Example 364, ethyl 3-[({2-[(trans-4-hydroxycyclohexyl)amino]quinazolin-7-yl}carbonyl)amino]pyrrolidine-1-carboxylate] | 5.70 | 
CNC(=O)N1CCC(NC(=O)c2cccc3cnc(N[C@H]4CC[C@H](O)CC4)nc23)CC1 [Example 467, 2-[(trans-4-hydroxycyclohexyl)amino]-N-{1-[(methylamino)carbonyl]piperidin-4-yl}quinazoline-8-carboxamide] | 5.69 | 
CC(=O)N[C@H]1CC[C@H](Nc2ncc3cccc(C(=O)N[C@@H](C)CO)c3n2)CC1 [Example 133, 2-{[trans-4-(acetylamino)cyclohexyl]amino}-N-[(1S)-2-hydroxy-1-methylethyl]quinazoline-8-carboxamide] | 6.68 | 
